Where two headings read alike, the source gives them in different places.

The text below walks through data of patent US6440446B1, “Agent for anti-osteoporosis” (Kabushiki Kaisha Hayashibara Seibutsu Kagaku Kenkyujo, priority 1998, dated 2002).

Data set [1] concerns ovary-extracted mice (oophorectomized osteoporosis). As to the kind of experiment: Animal experiment: intravenous injection to ovary-extracted mice on low-calcium feed, dry weight of femurs and tibia microscopy. Particulars: for Bone content compared with the control groups (ovaries extracted, PBS): administered in place of trehalose, data not shown; for Dry weight of extracted tibia / Dry weight of extracted tibia / Body weight: tail vein, 5 ml/kg body weight/shot, once daily, five times a week. It counts as in vivo, female ddY mice. The method, then:
An injection containing 10 w/w % trehalose, obtained by the later described Example 7, was diluted with a phosphate buffered saline, which had been filtered with a membrane filter having a pore size of 0.22 μm (hereinafter abbreviated as “PBS”) into a 0.1 w/w % or 1 w/w % trehalose solution. These solutions and the above injection were used for test samples. According to what is done conventionally, female ddY mice, 4-week-old, which had been grouped into 34 heads/group based on their body weight, were anesthetized with sodium pentobarbital, and extracted their ovaries. From the next day, the mice were injected from their tail veins with any one of the test samples at a dose of 5 ml/kg body weight/shot, once every day and five times a week. […] The feed used was a low-calcium feed for ease of making the difference of the bone content.
In parallel, the following control groups were provided and treated similarly as the group with trehalose: As control 1, a group in which mice were administered with the same amount of PBS as the test samples in place of them; and as control 2, a group in which mice, that were received with a laparotomy pseudo-operation and were not extracted their ovaries, were administered with the same amount of PBS as the test samples in place of them. Some of the mice administered with trehalose using one w/w t trehalose solution, and the mice in controls 1 and 2 as non-trehalose administration groups were extracted their tibias, followed by observing the tibias microscopically. The specimens for microscopic observation were prepared in the usual manner by immobilizing the extracted tibias with formalin solution, washed with water, delimed, split along with the long axis, and treated with protease K to remove bone marrow cells. The specimens of tibias were observed by a relatively-low vacuum electron-microscope under 24 magnifications, and photographed. The data are respectively in FIGS. 4 to 6. In these figures, white parts are the trabecula of cancellous bone. The osteoporosis occurred in mice extracted their ovaries is called oophorectomized osteoporosis and is an excellent model for postmenopausal osteoporosis as a geriatric osteoporosis.

For data set [2] the test system is unchanged. As to the kind of experiment: Animal experiment: oral administration to ovary-extracted mice on low-calcium feed, dry weight of femurs and tibia microscopy. It counts as in vivo, female ddY mice. The source says:
According to what is done conventionally, female ddY mice, 4-week-old, which had been grouped into 34 heads/group based on their body weight, were anesthetized with sodium pentobarbital, and extracted their ovaries. From the next day, the mice were orally administered with “TREHAOSE®”, a crystalline trehalose powder containing at least 98% trehalose, d.s.b., commercialized by Hayashibara Shoji, Inc, Okayama, Japan, which had been dissolved in distilled water, at a dose of 0.01, 0.1 or 1 g/kg body weight per shot once every day, five shots in a week. […] The feed used was a low-calcium feed for ease of making the difference of the bone content.
In parallel, the following control groups were provided and treated similarly as the group with trehalose: As control 1, a group in which mice were administered with the same amount of distilled water as the aqueous trehalose solution in place of the trehalose solution; as control 2, a group in which mice were administered with estradiol, as a therapeutic agent for osteoporosis, dissolved in the same amount of distilled water as the aqueous trehalose solution in place of the trehalose solution, at a dose of one mg/kg body weight/shot, two times a week; and as control 3, a group in which mice, which were received with a laparotomy pseudo-operation and not extracted their ovaries, were administered with the same amount of distilled water as the aqueous trehalose solution in place of the trehalose solution. Some of the mice administered with trehalose at a dose of 0.1 g/kg body weight/shot, and the mice in controls 1 and 3 as groups with no trehalose were extracted their tibias, followed by observing the tibias microscopically. The specimens for microscopic observation were prepared in the usual manner by immobilizing the extracted tibias with formalin solution, washed with water, delimed, split along with the long axis, and treated with protease K to remove bone marrow cells. The specimens of tibias were observed by a relatively-low vacuum electron-microscope under 24 magnifications, and photographed. The data are respectively in FIGS. 1 to 3. In these figures, white parts are the trabecula of cancellous bone. The osteoporosis occurred in the mice extracted their ovaries is called oophorectomized osteoporosis and is an excellent model for postmenopausal osteoporosis as a geriatric osteoporosis.

The subject of data set [3] is ddY mice. Particulars: mouse, in vivo. Here is the method: An adequate amount of “TREHAOSE®”, a crystalline trehalose powder having at least 98% of trehalose, d.s.b., commercialized by Hayashibara Shoji, Inc., Okayama, Japan, was dissolved in physiological saline containing 5 w/w % gum arabic, and the solution was sterilized in the usual manner. The sterilized solution was injected intraperitoneally or orally administered using a gastric tube to ddY mice, 20-25 g weight, in a group of 10 heads, followed by the observation for seven days. As a result, independently of the administration routes, no mouse died even administered with the maximum dose, 15 g/kg body weight.

The test system of data set [4] is osteoclasts. In words: Osteoclast count in cultured bone marrow cells from tibias of orally treated mice (tartaric-acid-resistant acid phosphatase staining). It counts as cell-based, ddY mice. Particulars: bone marrow cells from mice given oral 0.1 g/kg body weight/shot; control 1 at least 3-times. From the text:
Similarly as above, the tibias were extracted from some mice, excluding the aforesaid mice which had been extracted their tibias, in the group with trehalose at a dose of 0.1 g/kg body weight/shot, and in the groups 1 and 3. From each tibia, bone marrow cells were collected in the usual manner and suspended in α-MEM medium, supplemented with 10 v/v % fetal calf serum, to give a cell density of 1.5×10^6 cells/ml. The resulting cell suspensions were respectively placed in 24-well plates in a volume of 0.5 ml/well. To each well was added 0.25 ml/well of a cell suspension with a cell density of 4×10^4 cells/ml of osteoblast-like cells suspended in a fresh preparation of the same medium as above. A solution of 4×10^9M 1α, 25-dihydroxy vitamin D3, dissolved in a fresh preparation of the same medium as above, was added to each well in a volume. of 0.25 ml/well. The resulting cell suspension mixtures were incubated in a 5 v/v % CO2 incubator at 37° C. for six days while replacing the media with a fresh preparation of α-MEM medium containing 1×10^9M 1α, 25-dihydroxy vitamin D3 and 10 v/v % fetal calf serum.
After completion of the culture, the supernatants were removed, and the cells in each well were fixed with formalin, and treated in the usual manner with “NAPHTHOL AS-MS PHOSPHATE” and “RED VIOLET LB SALT”, which are commercialized by Sigma Chemical Company, ST. […]

Data set [5] concerns osteoclasts. As to the kind of experiment: Osteoclast count in cultured bone marrow cells from tibias of intravenously treated mice (tartaric-acid-resistant acid phosphatase staining). It is filed as cell-based, ddY mice. Particulars: bone marrow cells from mice given 10% trehalose solution, about 5 ml/kg body weight/shot; control 1 at least 3-times. Here is the method:
Similarly as above, the tibias were extracted from some mice, excluding the aforesaid mice which had been extracted their tibias, in the group with 10% trehalose solution at a dose of about 5 ml/kg body weight/shot, and in the groups 1 and 3. From each tibia, bone marrow cells were collected in the usual manner and suspended in α-MEM medium, supplemented with 10 v/v % fetal calf serum, to give a cell density of 1.5×10^6 cells/ml. The resulting cell suspensions were respectively placed in 24-well plates in a volume of 0.5 ml/well. To each well was added 0.25 ml/well of a cell suspension with a cell density of 4×10^4 cells/ml of osteoblast-like cells suspended in a fresh preparation of the same medium as above. A solution of 4×10^9M 1α, 25-dihydroxy vitamin D3, dissolved in a fresh preparation of the same medium as above, was added to each well in a volume of 0.25 ml/well. The resulting cell suspension mixtures were incubated in a 5 v/v % CO2 incubator at 37° C. for six days while replacing the media with a fresh preparation of α-MEM medium containing 1×10^9M 1α, 25-dihydroxy vitamin D3 and 10 v/v % fetal calf serum.
After completion of the culture, the supernatants were removed, and the cells in each well were fixed with formalin, and treated in the usual manner with “NAPHTHOL AS-MS PHOSPHATE” and “RED VIOLET LB”, which are commercialized by Sigma Chemical Company, ST. […]

Setting [6] is: one mg/kg body weight/shot, two times a week (control 2), ovary-extracted mice.
[7] abbreviates: oral 0.01 g/kg body weight/shot, once daily, five shots a week, ovary-extracted mice.
[8] abbreviates: oral 0.1 g/kg body weight/shot, once daily, five shots a week, ovary-extracted mice.
Where [9] appears, read: oral 1 g/kg body weight/shot, once daily, five shots a week, ovary-extracted mice.

Take `OC[C@H]1O[C@H](O[C@H]2[C@H](O)[C@@H](O)C(O)O[C@@H]2CO)[C@H](O)[C@@H](O)[C@@H]1O` (mixture of isomers) [maltose, reference compound]: in data set [1], the “Bone content compared with the control groups (ovaries extracted, PBS)” value was “no significant difference”.
With `C[C@]12CC[C@@H]3c4ccc(O)cc4CC[C@H]3[C@@H]1CC[C@@H]2O` [Estradiol, estradiol, reference compound], in data set [2] (setting [6]), the “Dry weight of extracted tibia” value is 119.9 ± 7.5 mg and the “Dry weight of extracted tibia / Body weight” value stood at 3.520 ± 0.240 mg/g.
With `OC[C@H]1O[C@H](O[C@H]2O[C@H](CO)[C@@H](O)[C@H](O)[C@H]2O)[C@H](O)[C@@H](O)[C@@H]1O` [Trehalose, trehalose], the “Dry weight of extracted tibia” value came out at 83.6 ± 7.0 mg in data set [2] (setting [7]); 85.0 ± 5.2 mg in data set [2] (setting [8]); 88.4 ± 6.4 mg in data set [2] (setting [9]); 84.2 ± 6.9 mg in data set [1] (0.1 w/w % trehalose solution); 86.9 ± 6.1 mg in data set [1] (1 w/w % trehalose solution); 89.7 ± 5.5 mg in data set [1] (10 w/w % trehalose injection). Also, the “Dry weight of extracted tibia / Body weight” value in data set [2] (setting [7]) is 2.643 ± 0.195 mg/g; in data set [2] (setting [8]) it was 2.723 ± 0.163 mg/g; in data set [2] (setting [9]), 2.762 ± 0.172 mg/g; in data set [1] (0.1 w/w % trehalose solution) it was 2.639 ± 0.213 mg/g; in data set [1] (1 w/w % trehalose solution), 2.716 ± 0.191 mg/g; in data set [1] (10 w/w % trehalose injection), 2.777 ± 0.170 mg/g. Besides, the “Reduction of trabecula in cancellous bone and expansion of the cavity of marrow (tibia, electron microscope x24, FIG. 1)” value in data set [2] (oral 0.1 g/kg body weight/shot, ovary-extracted mice) was “clearly inhibited”. In addition, the “Abnormality induced by the administration” value is “No abnormality” in data set [2] (oral, observation throughout the experiment) and “No abnormality” in data set [1] (intravenous, observation throughout the experiment). Also, in data set [2] (oral, ovary-extracted mice), the “Dose at which the inhibitory effect on the lowering of the bone content was found” value was “about 0.1 g/kg body weight/shot”. Besides, the “Death at the maximum dose” value in data set [3] (ip) and in data set [3] (po) was “no mouse died” each time. For the same compound, the “Number of osteoclasts relative to control 2 (times higher)” value in data set [4] and in data set [5] was “about 2 times” each time. The “Trehalose concentration at which the inhibitory effect on the lowering of bone content was found” value in data set [1] (intravenous, about 5 ml/kg body weight/shot) is about 1 w/w %. Moreover, in data set [1] (one w/w % trehalose solution, intravenous 5 ml/kg body weight/shot), the “Reduction of the trabecula in cancellous bone and expansion of the cavity of marrow (tibia, electron microscope x24, FIG. 4)” value is recorded as “clearly inhibited”.
Take `OC[C@@H](O)[C@@H](O)[C@H](O)[C@@H](O)CO` [sorbitol, reference compound]: the “Bone content compared with the control groups (ovaries extracted, PBS)” value in data set [1] was “no significant difference”.
`OC[C@H]1O[C@@](CO)(O[C@H]2O[C@H](CO)[C@@H](O)[C@H](O)[C@H]2O)[C@@H](O)[C@@H]1O` [sucrose, reference compound]: the “Bone content compared with the control group (ovaries extracted, distilled water)” value in data set [2] (administered in place of trehalose, data not shown) was “no significant difference”.
Take `OC[C@@H](O)[C@H](O)[C@@H](O)CO` [xylitol, reference compound]: the “Bone content compared with the control groups (ovaries extracted, PBS)” value in data set [1] is “no significant difference”.
